From patent US10570096B2, “Diamino pyridine derivatives” (NOVARTIS AG, priority 2015, dated 2020) come the findings set out here.

What all share (type): biochemical
In one assay the target is T1, JAK2 (Homo sapiens, UniProt O60674).
T1 construct: GST-JAK2 (808-1132); host or cells: insect cells
The assay can be described thus: Enzymatic JAK assay (Caliper mobility shift), JAK2. The note with it: GST-JAK2 (808-1132) kinase domain, 1.8 nM enzyme, 20 μM ATP (KmATP), 30° C., 60 minutes. Here is the method: (§1) Enzymatic JAK assays. For enzyme assays affinity-purified GST-fusions of the active kinase domains (GST-JAK1 (866-1154), GST-JAK2 (808-1132), GST-JAK3 (811-1124), and GST-TYK2(888-1187) were expressed in insect cells or purchased from Invitrogen (Carlsbad, USA). All assays were performed in 384-well microtiter plates with 8-point serial dilutions of compounds. The kinase reactions were started by stepwise addition of 4.5 μl per well of a 2× peptide/ATP-solution and 4.5 μl per well of a 2× enzyme solution. The final ATP concentration used in the assays corresponds to the individually determined KmATP for the respective enzyme. Assay buffer: 50 mM HEPES, pH 7.5, 1 mM DTT, 0.02% Tween20, 0.02% BSA, 0.6% DMSO, 10 mM beta-glycerophosphate, and 10 μM sodium orthovanadate. Other components were adjusted specifically for the respective kinase assays: JAK1: 16 nM enzyme, 70 μM ATP, 2 μM peptide substrate, 12 mM MgCl2. JAK2: 1.8 nM enzyme, 20 μM ATP, 2 μM peptide substrate, 9 mM MgCl2. JAK3: 13 nM enzyme, 18 μM ATP, 2 μM peptide substrate, 1.5 mM MgCl2. Tyk2: 3.5 nM enzyme, 35 μM ATP, 2 μM peptide substrate, 9 mM MgCl2. […] Phosphorylated and unphosphorylated peptides were separated using the Caliper microfluidic mobility shift technology on a Caliper LC3000 workstation and kinase activities were calculated from the amounts of formed phospho-peptide.

The next assay addresses T2, JAK3 (Homo sapiens, UniProt P52333).
T2 construct: GST-JAK3 (811-1124); host or cells: insect cells
The assay can be described thus: Enzymatic JAK assay (Caliper mobility shift), JAK3. Conditions: GST-JAK3 (811-1124) kinase domain, 13 nM enzyme, 18 μM ATP (KmATP), 30° C., 60 minutes. The protocol:
as §1

The next assay deals with T3, JAK1 (Homo sapiens, UniProt P23458).
T3 construct: GST-fusions of the active kinase domains (GST-JAK1 (866-1154)); host or cells: insect cells
T3 sequence (P23458 866-1154): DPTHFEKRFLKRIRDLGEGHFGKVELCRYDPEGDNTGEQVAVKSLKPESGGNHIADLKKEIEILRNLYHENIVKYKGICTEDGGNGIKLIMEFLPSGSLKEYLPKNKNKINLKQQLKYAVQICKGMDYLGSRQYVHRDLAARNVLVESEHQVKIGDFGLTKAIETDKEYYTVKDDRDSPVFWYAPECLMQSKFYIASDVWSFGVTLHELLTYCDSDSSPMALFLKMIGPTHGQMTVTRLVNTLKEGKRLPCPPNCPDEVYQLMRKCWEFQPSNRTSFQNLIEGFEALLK
The experiment in a line: Enzymatic JAK assay (Caliper mobility shift), JAK1. Conditions: GST-JAK1 (866-1154) kinase domain, 16 nM enzyme, 70 μM ATP (KmATP), 30° C., 60 minutes. Here is the method:
as §1

Another assay addresses T4, Tyk2 (Homo sapiens, UniProt P29597).
T4 construct: GST-TYK2(888-1187); host or cells: insect cells
T4 sequence (P29597 888-1187): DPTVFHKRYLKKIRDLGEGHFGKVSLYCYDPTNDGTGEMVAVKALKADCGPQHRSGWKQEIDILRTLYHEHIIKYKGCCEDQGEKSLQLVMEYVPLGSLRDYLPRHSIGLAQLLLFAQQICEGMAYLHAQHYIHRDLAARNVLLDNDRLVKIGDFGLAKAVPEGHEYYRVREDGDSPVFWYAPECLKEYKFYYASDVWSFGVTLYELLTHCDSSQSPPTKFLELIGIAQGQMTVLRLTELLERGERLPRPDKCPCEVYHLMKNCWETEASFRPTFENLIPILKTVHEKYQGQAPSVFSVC
The assay can be described thus: Enzymatic JAK assay (Caliper mobility shift), Tyk2. Conditions: GST-TYK2(888-1187) kinase domain, 3.5 nM enzyme, 35 μM ATP (KmATP), 30° C., 60 minutes. Here is the method: as §1

T2 sequence (P52333 811-1124): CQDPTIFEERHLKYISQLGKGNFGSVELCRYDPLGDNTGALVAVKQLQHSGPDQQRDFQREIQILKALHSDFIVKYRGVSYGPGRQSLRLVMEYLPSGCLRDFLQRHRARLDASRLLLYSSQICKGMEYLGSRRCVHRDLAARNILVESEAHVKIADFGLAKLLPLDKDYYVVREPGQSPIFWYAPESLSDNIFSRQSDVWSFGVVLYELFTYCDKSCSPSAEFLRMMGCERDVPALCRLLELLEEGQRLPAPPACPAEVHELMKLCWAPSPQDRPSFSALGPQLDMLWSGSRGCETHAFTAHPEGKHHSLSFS
T1 sequence (O60674 808-1132): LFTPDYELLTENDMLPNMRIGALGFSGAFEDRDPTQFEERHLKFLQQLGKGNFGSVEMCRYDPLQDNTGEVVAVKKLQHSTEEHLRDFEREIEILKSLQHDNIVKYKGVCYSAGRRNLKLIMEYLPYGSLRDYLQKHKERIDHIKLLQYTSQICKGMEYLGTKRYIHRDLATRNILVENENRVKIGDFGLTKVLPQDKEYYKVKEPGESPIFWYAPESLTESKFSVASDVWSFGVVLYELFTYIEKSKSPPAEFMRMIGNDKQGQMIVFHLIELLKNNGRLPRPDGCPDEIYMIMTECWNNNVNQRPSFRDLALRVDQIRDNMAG

For orientation: IC50 means the concentration needed to halve the response being measured. Turning to `NC(=O)c1cnc(Nc2ccccn2)cc1Nc1ccccc1Cl` [Example 1, 4-((2-chlorophenyl)amino)-6-(pyridin-2-ylamino)nicotinamide], the IC50 worked out at 14 nM on JAK2, 9 nM on JAK3, 18 nM at JAK1 and 14 nM at Tyk2.
For `Cc1cccc(Nc2cc(Nc3ccccc3Cl)c(C(N)=O)cn2)n1` [Example 2, 4-((2-chlorophenyl)amino)-6-((6-methylpyridin-2-yl)amino)nicotinamide], the IC50 worked out at 25 nM at JAK2, 15 nM on JAK3, 12 nM at JAK1 and 24 nM on Tyk2.
